Results taken from ChEMBL document CHEMBL1126054, “Structure and molecular modeling of GABAA receptor antagonists” (J Med Chem, 1992).

Legend:
[1] = biological target: GABA-A receptor; anion channel; assay: (§1) Displacement of [3H]GABA from gamma-aminobutyric-acid A (GABA-A) receptor; type: protein-complex assay, Rattus norvegicus
[2] = biological target: GABA-A receptor; anion channel; assay: Displacement of [3H]muscimol from Gamma-aminobutyric acid A (GABA-A) receptor; type: protein-complex assay, Rattus norvegicus
[3] = as §1; parameters: species or system Rattus norvegicus

IC50 [1] [µM] | Compound | also measured
16 | Oc1onc2c1CCNCC2 | –
0.02 | CC12CC(=O)C3C(CCC4CC(O)CCC43C)C1CC(=N)N2 (stereo not given) | –
– | c1ccc2c(c1)Cc1ccccc1-n1c-2nnc1N1CCNCC1 [PITRAZEPINE] | IC50 [2]: 0.24 µM
– | O=C1C=C2C=C[C@@H]3C[C@@]2(O1)[C@H]1CCCCN31 [SECURININE] | IC50 [3]: 50 µM

Compound | IC50 [1] [µM] | also measured
COc1cc2c3cc1Oc1cc(ccc1O)C[C@@H]1c4c(cc(OC)c(O)c4Oc4ccc(cc4)C[C@@H]3N(C)CC2)CC[N+]1(C)C | 58 | –
